Assay: Microsomal stability in rat liver microsomes
Settings: Rat liver microsomes 1 mg/mL protein, 1 μM compound, 37° C., NADPH 4 mM
Procedure: Several compounds were evaluated for stability in rat liver microsomes.
The test compounds (1 μM) were incubated at 37° C. in phosphate buffer (50 mM, pH 7.4) containing rat liver microsomes (1 mg/mL protein) and NADPH (Nicotinamide Adenine Dinucleotide Phosphate, reduced form) (4 mM). The incubation mixtures were quenched with trichloroacetic acid (0.3 M) over 0, 5, 15, 30 min time-course. Quenched solutions were centrifuged and supernatants were transferred for LC/MS quantitation. The half life of a test compounds was derived from the compound stability curve over the time course.

In order of rising “T1/2” value:
1. N#Cc1ccccc1Cn1c(N2CCCC(N)C2)nc2ccccc2c1=O (stereo not drawn) [Example 1, 2-[2-(3-Amino-piperidin-1-yl)-4-oxo-4H-quinazolin-3-ylmethyl]-benzonitrile]  2.5 min
2. N#Cc1ccccc1Cn1c(N2CCCC(N)C2)nc2ccc(F)cc2c1=O (stereo not drawn) [Example 6, 2-[2-(3-Amino-piperidin-1-yl)-6-fluoro-4-oxo-4H-quinazolin-3-ylmethyl]-benzonitrile]  31 min
3. COc1cc2nc(N3CCCC(N)C3)n(Cc3ccccc3C#N)c(=O)c2cc1OC (stereo not drawn) [Example 2, 2-[2-(3-Amino-piperidin-1-yl)-6,7-dimethoxy-4-oxo-4H-quinazolin-3-ylmethyl]-benzonitrile]  106.6 min

Reference: patent US20040242568A1, “Dipeptidyl peptidase inhibitors” (Syrrx, Inc., priority 2003, published 2004)
